Measured values reported in patent publication US8124566B2 (priority 2004, dated 2012).
“And” between values parts separate entries of the source, which are not always exact repeats. Equal entries are not always repeated. Where two headings read alike, the source gives them in different places.

Key:
Type in all cases: cell-based
Details in all cases: active ingredient alone
[1] = tested on: Pyrenophora teres; experiment: Fungal growth assay, Pyrenophora teres (Example B-5 a)
[2] = tested on: Leptosphaeria nodorum; experiment: Fungal growth assay, Leptosphaeria nodorum (Example B-8)
[3] = tested on: Venturia inaequalis; experiment: Fungal growth assay, Venturia inaequalis (Example B-6 a)
[4] = tested on: Pyricularia oryzae
[5] = tested on: Alternaria solani; experiment: Fungal growth assay, Alternaria solani (Example B-4 a)
[6] = tested on: Septoria tritici; experiment: Fungal growth assay, Septoria tritici (Example B-2 a)
[7] = tested on: Botrytis cinerea; experiment: Fungal growth assay, Botrytis cinerea (Example B-1 a)
[8] = tested on: Pythium ultimum; experiment: Fungal growth assay, Pythium ultimum (Example B-7)

Question: With C#CCOc1ccc(CCNC(=O)C(OCC#C)c2ccc(Cl)cc2)cc1OC (stereo not drawn) [Cpd F-1] as the compound, how does the “Observed control in % (% Cobs)” value ([1]; 5.4 ppm [mg/L]) read?
Answer: 2%

Question: What about the “Observed control in % (% Cobs)” value ([1]; 16.2 ppm [mg/L]) of the same compound?
Answer: 6%

Question: What does the source list for Fc1ccc([C@]2(Cn3cncn3)O[C@H]2c2ccccc2Cl)cc1 (racemic) [Epoxiconazole]?
Answer: Observed control in % (% Cobs) ([2]; 0.0025 ppm [mg/L]): 9%; Observed control in % (% Cobs) ([2]; 0.0222 ppm [mg/L]): 39%

Question: Which results are given for CC1CCN(c2c(-c3c(F)cc(F)cc3F)c(Cl)nc3ncnn23)CC1 [Cpd B-1]?
Answer: Observed control in % (% Cobs) ([3]; 0.0008 ppm [mg/L]): 17%; Observed control in % (% Cobs) ([3]; 0.0025 ppm [mg/L]): 32%; Observed control in % (% Cobs) ([3]; 0.0074 ppm [mg/L]): 61%

Question: With N#Cc1c(Cl)c(Cl)c(Cl)c(C#N)c1Cl [Chlorothalonil] as the compound, how does the “Observed control in % (% Cobs)” value ([4]; 0.002 ppm [mg/L]) read?
Answer: 0%

Question: And the “Observed control in % (% Cobs)” value ([4]; 0.007 ppm [mg/L])?
Answer: 0%

Question: What about the “Observed control in % (% Cobs)” value ([4]; 0.067 ppm [mg/L]) of the same compound?
Answer: 0%

Question: How did the “Observed control in % (% Cobs)” value ([3]; 0.0025 ppm [mg/L]) turn out when CC(Cc1ccc(C(C)(C)C)cc1)CN1C[C@@H](C)O[C@@H](C)C1 (stereo partly drawn) [Fenpropimorph] was run?
Answer: 0%

Question: What about the “Observed control in % (% Cobs)” value ([3]; 0.0222 ppm [mg/L]) of the same compound?
Answer: 33%

Question: For N#Cc1c[nH]cc1-c1cccc2c1OC(F)(F)O2 [Fludioxonil], which “Observed control in % (% Cobs)” value ([5]; 0.022 ppm [mg/L]) is on record?
Answer: 1%

Question: What about the “Observed control in % (% Cobs)” value ([5]; 0.067 ppm [mg/L]) of the same compound?
Answer: 24%

Question: Which “Observed control in % (% Cobs)” value ([6]; 0.007 ppm [mg/L]) does the source give for CCCC1COC(Cn2cncn2)(c2ccc(Cl)cc2Cl)O1 (stereo not drawn) [Propiconazole] here?
Answer: 0%

Question: What about the “Observed control in % (% Cobs)” value ([6]; 0.067 ppm [mg/L]) of the same compound?
Answer: 7%

Question: How did the “Observed control in % (% Cobs)” value ([4]; 0.002 ppm [mg/L]) turn out when Cc1cc(C2CC2)nc(Nc2ccccc2)n1 [Cyprodinil] was run?
Answer: 0%

Question: And the “Observed control in % (% Cobs)” value ([4]; 0.007 ppm [mg/L])?
Answer: 0%

Question: What about the “Observed control in % (% Cobs)” value ([4]; 0.067 ppm [mg/L]) of the same compound?
Answer: 0%

Question: For CC(C1CC1)C(O)(Cn1cncn1)c1ccc(Cl)cc1 (stereo not drawn) [Cyproconazole], which “Observed control in % (% Cobs)” value ([4]; 0.022 ppm [mg/L]) is on record?
Answer: 0%

Question: And the “Observed control in % (% Cobs)” value ([4]; 0.200 ppm [mg/L])?
Answer: 0%

Question: CO/C=C(/C(=O)OC)c1ccccc1Oc1cc(Oc2ccccc2C#N)ncn1 [Azoxystrobin] was tested. Which “Observed control in % (% Cobs)” value ([7]; 0.60 ppm [mg/L]) did it give?
Answer: 7%

Question: What about the “Observed control in % (% Cobs)” value ([7]; 1.80 ppm [mg/L]) of the same compound?
Answer: 14%

Question: Which “Observed control in % (% Cobs)” value ([7]; 0.0222 ppm [mg/L]) does the source give for OC(Cc1ccccc1Cl)(Cn1nc[nH]c1=S)C1(Cl)CC1 (stereo not drawn) [Prothioconazole] here?
Answer: 8%

Question: What about the “Observed control in % (% Cobs)” value ([7]; 0.0667 ppm [mg/L]) of the same compound?
Answer: 17%

Question: And the “Observed control in % (% Cobs)” value ([7]; 0.2000 ppm [mg/L])?
Answer: 52%

Question: For CC1COC(Cn2cncn2)(c2ccc(Oc3ccc(Cl)cc3)cc2Cl)O1 (stereo not drawn) [Difenoconazole], which “Observed control in % (% Cobs)” value ([2]; 0.0008 ppm [mg/L]) is on record?
Answer: 5%

Question: And the “Observed control in % (% Cobs)” value ([2]; 0.0025 ppm [mg/L])?
Answer: 16%

Question: And the “Observed control in % (% Cobs)” value ([2]; 0.0074 ppm [mg/L])?
Answer: 73%

Question: Which results are given for CC(Cc1ccc(C(C)(C)C)cc1)CN1CCCCC1 (stereo not drawn) [Fenpropidin]?
Answer: Observed control in % (% Cobs) ([8]; 5.4000 ppm [mg/L]): 11%; Observed control in % (% Cobs) ([8]; 16.2000 ppm [mg/L]): 34%

Question: Which “Observed control in % (% Cobs)” value ([8]; 0.0667 ppm [mg/L]) does the source give for CC(C)C1C2CCC1c1c(NC(=O)c3cn(C)nc3C(F)F)cccc12 (racemic) [Cpd Ic] here?
Answer: 0%

Question: And the “Observed control in % (% Cobs)” value ([8]; 0.2000 ppm [mg/L])?
Answer: 0%

Question: And the “Observed control in % (% Cobs)” value ([8]; 0.6000 ppm [mg/L])?
Answer: 0%

Question: What about the “Observed control in % (% Cobs)” value ([1]; 0.0667 ppm [mg/L]) of the same compound?
Answer: 37%

Question: And the “Observed control in % (% Cobs)” value ([1]; 0.2000 ppm [mg/L])?
Answer: 55%

Question: And the “Observed control in % (% Cobs)” value ([7]; 0.0025 ppm [mg/L])?
Answer: 0%

Question: What about the “Observed control in % (% Cobs)” value ([7]; 0.0074 ppm [mg/L]) of the same compound?
Answer: 10%

Question: What about the “Observed control in % (% Cobs)” value ([7]; 0.0222 ppm [mg/L]) of the same compound?
Answer: 23% and 18% and 12%

Question: What about the “Observed control in % (% Cobs)” value ([7]; 0.0667 ppm [mg/L]) of the same compound?
Answer: 35% and 28%

Question: What about the “Observed control in % (% Cobs)” value ([7]; 0.2000 ppm [mg/L]) of the same compound?
Answer: 71%

Question: And the “Observed control in % (% Cobs)” value ([3]; 0.0222 ppm [mg/L])?
Answer: 6% and 10%

Question: What about the “Observed control in % (% Cobs)” value ([3]; 0.0667 ppm [mg/L]) of the same compound?
Answer: 18%

Question: What about the “Observed control in % (% Cobs)” value ([3]; 0.2000 ppm [mg/L]) of the same compound?
Answer: 59%

Question: And the “Observed control in % (% Cobs)” value ([2]; 0.0222 ppm [mg/L])?
Answer: 0%

Question: And the “Observed control in % (% Cobs)” value ([2]; 0.0667 ppm [mg/L])?
Answer: 0%

Question: And the “Observed control in % (% Cobs)” value ([2]; 0.2000 ppm [mg/L])?
Answer: 0%

Question: What about the “Observed control in % (% Cobs)” value ([5]; 0.0025 ppm [mg/L]) of the same compound?
Answer: 8%

Question: What about the “Observed control in % (% Cobs)” value ([5]; 0.0074 ppm [mg/L]) of the same compound?
Answer: 27%

Question: And the “Observed control in % (% Cobs)” value ([4]; 0.0001 ppm [mg/L])?
Answer: 2%

Question: What about the “Observed control in % (% Cobs)” value ([4]; 0.0008 ppm [mg/L]) of the same compound?
Answer: 3%

Question: And the “Observed control in % (% Cobs)” value ([4]; 0.0025 ppm [mg/L])?
Answer: 13% and 6%

Question: What about the “Observed control in % (% Cobs)” value ([4]; 0.0074 ppm [mg/L]) of the same compound?
Answer: 33%

Question: What about the “Observed control in % (% Cobs)” value ([4]; 0.0222 ppm [mg/L]) of the same compound?
Answer: 59%

Question: What about the “Observed control in % (% Cobs)” value ([6]; 0.0001 ppm [mg/L]) of the same compound?
Answer: 1%

Question: And the “Observed control in % (% Cobs)” value ([6]; 0.0008 ppm [mg/L])?
Answer: 13%

Question: How did the “Observed control in % (% Cobs)” value ([7]; 0.0222 ppm [mg/L]) turn out when CO/C=C(/C(=O)OC)c1ccccc1COc1cccc(C(F)(F)F)n1 [Picoxystrobin] was run?
Answer: 0%

Question: What about the “Observed control in % (% Cobs)” value ([7]; 0.0667 ppm [mg/L]) of the same compound?
Answer: 6%

Question: And the “Observed control in % (% Cobs)” value ([7]; 0.2000 ppm [mg/L])?
Answer: 12%

Question: And the “Observed control in % (% Cobs)” value ([7]; 0.6000 ppm [mg/L])?
Answer: 20%
